Data published in US10760110B2, “Antibiotic testing and screening system” (priority 2017, dated 2020).
Values after ≈ are worked out from the molar mass of the structure shown. Like-named read-outs stand apart in the source and are kept apart here.

Experiments:
[1] = test system: A. baumannii KW1 strains with tet resistance gene plasmids; test: Etest MIC of tetracyclines, tet resistance gene (Table 20); type: cell-based, Acinetobacter baumannii; settings: for MIC: Acinetobacter baumannii
Experimental: DNA fragments of the resistance genes along with their flanking regions were amplified from clinical plasmids via PCR with specific primer pairs. The resulting PCR fragments were digested and then cloned into the plasmid pYMAb5 or pYMAb5Tc. The resulting plasmids were then transformed into A. baumannii KW1 via electroporation.
(§1) The MICs of antibiotics were determined using the Etest (Biodisk AB, Sweden) according to the manufacturer's instructions. The MICs from the Etest, which fall between standard two-fold dilutions, were rounded up to the next highest two-fold value. The MICs of ceftazidime and cefotaxime against K. pneumoniae NVT1001 harbouring the pACYC177 plasmid with blaOXA-48 were further determined using a broth microdilution test according to the recommendations of the CLSI,^25 and the results were interpreted according to the breakpoints established by the CLSI in 2017.^25 Meanwhile, due to the lack of CLSI breakpoints in 2016 and 2017, the results for cephalothin were interpreted according to the breakpoints established by the CLSI in 2015,^26 and the results for moxifloxacin were interpreted according to the breakpoints established by the EUCAST in 2017.^27

[2] = test system: A. baumannii KW1 and its AdeR/AdeS mutants; test: Etest MIC, AdeABC overexpression via AdeR or AdeS mutation (Table 16); type: cell-based, Acinetobacter baumannii; settings: Acinetobacter baumannii
Text: DNA fragments of the entire adeR, adeS, gyrA and parC along with their flanking regions were amplified from A. baumannii KW1 using PCR with specific primer pairs and then cloned into plasmid pUT-KB. The QuikChange site-directed mutagenesis kit (Stratagene) was used to generate mutations in the adeR, adeS, gyrA and parC genes in the plasmids using the methods described by the manufacturer. For homologous recombination, plasmids containing mutations in the adeR, adeS, gyrA or parC gene were transformed into E. coli S17-1 λpir^23 via electroporation and mobilized into A. baumannii KW1 via conjugation. Single-crossover strains were selected from Luria-Bertani (LB) plates supplemented with cefotaxime (1 μg/ml) and kanamycin ([…]), as the growth of non-A. baumannii contaminants is suppressed by cefotaxime (1 μg/ml). The kanamycin-resistant transconjugants were selected and the insertion of plasmids was verified via PCR. After incubation in 20 ml brain heart infusion (BHI) broth for 6 hours in the absence of kanamycin at 37° C., the fully grown cultures were spread onto LB plates supplemented with 10% sucrose. After the double crossover occurred, the sucrose-resistant and kanamycin-susceptible colonies were selected, and the gene mutations were confirmed via PCR.
as §1

[3] = test system: K. pneumoniae NVT1001 ΔramRΔompK35/36 mutant and its revertants; test: Etest MIC, ΔramRΔompK35/36 mutant and its revertants (Table 7); type: cell-based; settings: Klebsiella pneumoniae
[4] = test system: K. pneumoniae NVT1001 and its ΔompK35/36 and/or ΔramR mutants; test: Etest MIC, OmpK35/36 loss and AcrAB-TolC overexpression (ΔramR) strains (Table 6); type: cell-based, Klebsiella pneumoniae; settings: Klebsiella pneumoniae
Procedure, shortened: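 Ceftazidime and cefotaxime were tested by CLSI broth microdilution on the blaOXA-48 pACYC177 transformant of NVT1001, using CLSI 2017 breakpoints. Parent, porin-deleted (ΔompK35/36) and ΔramR strains were tested by Etest, with values between two-fold dilutions rounded up.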

[5] = test system: K. pneumoniae NVT1001 and ΔramR strains with tet resistance gene plasmids; test: Etest MIC of tetracyclines, AcrAB-TolC overexpression (ΔramR) and/or tet resistance gene (Table 14); type: cell-based, Klebsiella pneumoniae; settings: for MIC: Klebsiella pneumoniae
Experimental: DNA fragments of the resistance genes along with their flanking regions were amplified from clinical plasmids via PCR with specific primer pairs. The resulting PCR fragments were digested and then cloned into the plasmid pACYC177 or pACYC184. The resulting plasmids were then transformed into K. pneumoniae strain NVT1001 via electroporation. The recombinant bacteria were plated onto LB agar plates containing kanamycin (50 mg/L) or chloramphenicol (50 mg/L), and the presence of the cloned gene was confirmed via PCR and DNA sequencing.
as §1

CN(C)c1cc(NC(=O)CNC(C)(C)C)c(O)c2c1C[C@H]1C[C@H]3[C@H](N(C)C)C(O)=C(C(N)=O)C(=O)[C@@]3(O)C(O)=C1C2=O [Tigecycline, tigecycline]
MIC ([1]; KW1, Tet(A) on pYMAb5): 1 µg/mL
MIC ([1]; KW1, Tet(B) on pYMAb5): 0.38 µg/mL
MIC ([1]; KW1, Tet(M) on pYMAb5): 0.38 µg/mL
MIC ([1]; KW1, no supplemental plasmid): 0.38 µg/mL
MIC ([1]; KW1 with shuttle vector pYMAb5): 0.38 µg/mL
effects on the MIC ([1]; production of Tet(B) or Tet(M)): no observable effects
MIC ([2]; A91V mutant (AdeR)): 3 µg/mL
MIC ([2]; A94V mutant (AdeS)): 2 µg/mL
MIC ([2]; D20N mutant (AdeR)): 2 µg/mL
MIC ([2]; G30D mutant (AdeS)): 3 µg/mL
MIC ([2]; KW1, read-out: MIC): 0.25 µg/mL
MIC ([2]; P116L mutant (AdeR)): 1.5 µg/mL
MIC ([2]; R152K mutant (AdeS)): 2 µg/mL
MIC ([2]; T153M mutant (AdeS)): 3 µg/mL
MIC ([3]; ΔramRΔompK35/36::ompK35/36 revertant): 8 µg/mL
MIC ([3]; ΔramRΔompK35/36::ompK35 revertant): 8 µg/mL
MIC ([3]; ΔramRΔompK35/36::ompK36 revertant): 8 µg/mL
MIC ([3]; ΔramRΔompK35/36::ramR revertant): 1 µg/mL
MIC ([3]; ΔramRΔompK35/36::ramR::ompK35/36 revertant): 1 µg/mL
MIC ([3]; ΔramRΔompK35/36::ramR::ompK35 revertant): 1 µg/mL
MIC ([3]; ΔramRΔompK35/36::ramR::ompK36 revertant): 1 µg/mL
MIC ([3]; ΔramRΔompK35/36 mutant): 8 µg/mL
MIC ([4]; WT, NVT1001, read-out: MIC): 1 µg/mL (≈ 1.71 µM)
MIC ([4]; Δ35, ΔompK35 mutant): 1 µg/mL (≈ 1.71 µM)
MIC ([4]; Δ35/36, ΔompK35/36 mutant): 1 µg/mL (≈ 1.71 µM)
MIC ([4]; Δ36, ΔompK36 mutant): 1 µg/mL (≈ 1.71 µM)
MIC ([4]; ΔramR mutant): 8 µg/mL (≈ 13.7 µM)
MIC ([4]; ΔramRΔ35, ΔramRΔompK35 mutant): 8 µg/mL (≈ 13.7 µM)
MIC ([4]; ΔramRΔ35/36, ΔramRΔompK35/36 mutant): 8 µg/mL (≈ 13.7 µM)
MIC ([4]; ΔramRΔ36, ΔramRΔompK36 mutant): 8 µg/mL (≈ 13.7 µM)
MIC ([5]; NVT1001, Tet(A) on pACYC177, read-out: MIC): 8 µg/mL
MIC ([5]; NVT1001, Tet(B) on pACYC177, read-out: MIC): 1 µg/mL
MIC ([5]; NVT1001, Tet(C) on pACYC177, read-out: MIC): 1 µg/mL
MIC ([5]; NVT1001, Tet(D) on pACYC177, read-out: MIC): 1 µg/mL
MIC ([5]; NVT1001, Tet(M) on pACYC177, read-out: MIC): 1 µg/mL
MIC ([5]; NVT1001, no supplemental plasmid, read-out: MIC): 1 µg/mL
MIC ([5]; ΔramR, Tet(A) on pACYC177): 32 µg/mL
MIC ([5]; ΔramR, Tet(B) on pACYC177): 8 µg/mL
MIC ([5]; ΔramR, Tet(C) on pACYC177): 8 µg/mL
MIC ([5]; ΔramR, Tet(D) on pACYC177): 8 µg/mL
MIC ([5]; ΔramR, Tet(M) on pACYC177): 8 µg/mL
MIC ([5]; ΔramR, no supplemental plasmid): 8 µg/mL
increase in the MIC ([5]; Tet(A) production): 8 fold
effects on the MIC ([5]; production of Tet(B), Tet(C), Tet(D) or Tet(M), with or without ΔramR): no observable effects
increase in the MIC ([5]; {}): 8 fold
